In one assay the test system is C. elegans adult animals. As to the kind of experiment: Lifespan of C. elegans adult animals (Kaplan-Meier survival). The assay is classed as in vivo.
The subject of the next assay is Caenorhabditis elegans. As to the kind of experiment: Oxidative stress tolerance after paraquat exposure. Format: in vivo. Conditions: 10 mM, positive control; over 24 hours post-exposure; negative control (DMSO) declined 41%. From the text:
Still referring to FIG. 1, composition 100 may be configured to improve oxidative stress tolerance, preserve mitochondrial function, support energy production, enhance cellular defense mechanisms against oxidative stress, stimulate endogenous antioxidants and enzymes, reduce oxidative stress and/or mitochondrial oxidative stress, improve mitochondrial function, improve healthspan, improve longevity, improve autophagy, increase autophagy, or the like. Oxidative stress and healthspan disclosed herein are further described below. For the purposes of this disclosure, “oxidative stress” is a physiological state characterized by an imbalance between the production of reactive oxygen species and the body's antioxidant defenses. In a non-limiting example, reactive oxygen species (ROS) can be generated endogenously as byproducts of cellular metabolism; for instance in the mitochondria. In another non-limiting example, ROS can be generated exogenously in the result of environmental pollutants, radiation, cigarette smoking, alcohol, certain foods, and drugs. In a healthy human, the body's antioxidant defenses can neutralize these molecules before they cause significant cellular damage. However, when their production overwhelms the body's capacity to neutralize and eliminate them, they can cause widespread cellular damage. […]

[1] abbreviates: 50 μM, * p<0.05 vs negative control.
Setting [2] is: 100 μM, * p<0.05 vs negative control.

Protocol for C. elegans adult animals: In a embodiments, organisms may include a vehicle control 204. In an embodiment, organisms may be treated with at least 0.05 mg/ml 208 of composition 100 and compared to a “vehicle control,” which as used in this disclosure, may include organisms not treated with composition 100. Lifespan data was represented as the percent of organism surviving over time, known as the Kaplan-Meier Estimate of Survival function.
Chart 212 illustrates the impact of resveratrol 216 at 100 μM; and rapamycin 220 at 50 μM; composition 100 at 0.05 mg/ml 208, 0.25 mg/ml 224, and 1.25 mg/ml 228; resveratrol at 100 μM; and rapamycin at 50 μM. In another non-limiting example, subjects, for instance, C. elegans, may be divided into five groups, with each group receiving a different concentration of composition (0.05 mg/mL 208, 0.25 mg/mL 224, or 1.25 mg/mL 228), vitamin C as a positive control (10 mM), or dimethyl sulfoxide (DMSO) as a negative control (0.05% DMSO).

As for `CO[C@H]1C[C@@H]2CC[C@@H](C)[C@@](O)(O2)C(=O)C(=O)N2CCCC[C@H]2C(=O)O[C@H]([C@H](C)C[C@@H]2CC[C@@H](O)[C@H](OC)C2)CC(=O)[C@H](C)/C=C(\C)[C@@H](O)[C@@H](OC)C(=O)[C@H](C)C[C@H](C)/C=C/C=C/C=C/1C` [Rapamycin, rapamycin], in the assay on C. elegans adult animals (setting [1]), the “age at 25% Mortality” value is recorded as 24.6* days, the “age at 50% Mortality (median lifespan)” value is on record as 29.5* days, the “age at 75% Mortality” value is given as 32.8* days and the “age at 90% Mortality” value is recorded as 35.7* days. The “age at 95% Mortality” value in the assay with C. elegans adult animals (setting [1]) was 36.1* days.
With `O=C1O[C@H]([C@@H](O)CO)C(O)=C1O` [vitamin C], the “average decline after paraquat-induced oxidative stress” value in the assay with Caenorhabditis elegans stood at 25%.
Turning to `Oc1ccc(C=Cc2cc(O)cc(O)c2)cc1` [Resveratrol, resveratrol], the “age at 90% Mortality” value in the assay on C. elegans adult animals (100 μM) was found to be 30.2 days. In addition, in the assay with C. elegans adult animals (setting [2]), the “age at 25% Mortality” value is reported as 22.4* days, the “age at 50% Mortality (median lifespan)” value is 25.5* days, the “age at 75% Mortality” value was 28.3* days and the “age at 95% Mortality” value was 32.3* days.

Source of the values: patent US12121545B2, “Composition for a fecal-derived sterilized postbiotic in anti-aging and neurotherapeutic applications” (priority 2022, dated 2024).
